For this assay, the system named is CEM cells HIV-1 protection, formazan growth assay. The assay can be described thus: NCI AIDS Antiviral Assay. The note with it: for IC50: measured here: growth of uninfected CEM cells. In outline: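 Human CEM cells, uninfected and HIV-1-infected, exposed to five drug concentrations; growth measured by soluble formazan assay and scored as percent protection from infection, with protecting compounds retested.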

Calls of active or inactive are those of the source.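 How the source made its calls: active means compounds giving half or more protection of infected cells from virus-caused growth loss, again on retest; inactive means the rest.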

For `NNc1c(Cl)c(=O)n(-c2ccccc2)[nH]c1=O`, the EC50 (commonly the concentration that produces a half-maximal response) is above 200 µM and the IC50 (usually the concentration needed to halve the response being measured) was above 200 µM.
`COc1cc(-c2oc3c(OC)cc(OC)c(O)c3c(=O)c2OC)cc(OC)c1OC`: the EC50 was above 200 µM and the half-maximal inhibitory concentration (IC50) was above 200 µM.
As for `O=S(=O)(C=C=CCO)c1ccccc1`, the outcome was inactive.
Still for that read-out and setting: the value for `CC[C@](C)(O)C(=O)O[C@H]1C(=O)O[C@@H]2C[C@H]3C(C)=CC(=O)[C@@H](O)[C@]3(C)[C@H]3[C@@]4(O)OC[C@]32[C@@H]1[C@@H](C)[C@H]4O` was “inactive”.
Regarding `COc1cc2c(cc1OC)C(CSC)Cc1cc(OC)c(OC)cc1N(C)CCC2` (configuration not stated), the EC50 is above 31.6 µM and the 50% inhibitory concentration (IC50) was above 31.6 µM.
In the case of `Cc1cccc2ns[s+]c12`, the EC50 is above 18.6 µM and the IC50 was above 18.6 µM.
As for `CCCCCCCCCCCCCC(=O)OCC1OC(n2cc(F)c(=O)[nH]c2=O)C(N)C(OC(=O)CCCCCCCCCCCCC)C1O` (configuration not stated), the EC50 is above 7.41 µM and the IC50 is above 7.41 µM.
As for `Cc1ccn2c(c1)nc1nc3ccccc3nc12`, the EC50 is above 214 µM and the IC50 turned out to be 110 µM.
The corresponding values for `C=CCCCC(C)(C(=O)OC(C)(C)C)C1=NOC(C)(C)C1` (configuration not stated) are above 200 µM and above 200 µM.
With `CC(C)(C)OC(=O)N(CCCN)CCCCN(CCCN)C(=O)OC(C)(C)C`, the result was inactive.
Consider `COc1ccc(CCCNC(=O)c2cc(OC)c(OC)cc2CCO)cc1OC`, for which the EC50 is above 200 µM and the IC50 was above 200 µM.
As to `Cc1nn(C(=O)c2ccc(Cl)cc2)c2c1C(c1ccccc1[N+](=O)[O-])SC(N)=N2` (configuration not stated), the EC50 was above 200 µM and the half-maximal inhibitory concentration (IC50) is 105 µM.
The corresponding values for `O=c1c(O)c(-c2cc(O)c(O)cc2O)oc2cc(O)c(C3OC(CO)C(O)C(O)C3O)c(O)c12` (configuration not stated) are above 200 µM and 138 µM.
Regarding `C1=CC2C=CC(C=C1)[PH+]2c1ccccc1.C1=CC2C=CC(C=C1)[PH+]2c1ccccc1.[C-]#[O+].[C-]#[O+].[C-]#[O+].[Fe]` (configuration not stated), the EC50 is above 17.8 µM and the 50% inhibitory concentration (IC50) was above 17.8 µM.
Regarding `CC(=O)C(CN(Cc1ccccc1)Cc1ccccc1)C(c1ccccc1)c1c(O)c2ccccc2oc1=O` (configuration not stated), the EC50 is above 170 µM and the half-maximal inhibitory concentration (IC50) is above 100 µM.
For `CCN(CC)CCCNC(=O)C1COc2cc(-c3cc(=O)c4ccccc4o3)ccc2O1` (configuration not stated), the result was inactive.
`N[C@H]1CCC[C@@H](O)C1O` (some centres not stated): the EC50 was above 200 µM and the half-maximal inhibitory concentration (IC50) was above 200 µM.
As to `O=S1(=O)OCCCO1`, the EC50 was above 1820 µM and the IC50 was above 1820 µM.
`CNS(=O)(=O)NNS(=O)(=O)c1ccc(C)cc1`: the EC50 is above 468 µM and the IC50 was determined as 145 µM.
As for `O=C(NCCCCCCNC(=O)n1cc(F)c(=O)[nH]c1=O)NCCCOCCOCCCNC(=O)C(O)C(O)C(O)C(O)CO` (configuration not stated), the outcome was inactive.
`Cn1c(=S)c2c(nc(SCCc3ccccc3)n2CCc2ccccc2)n(C)c1=O`: the EC50 was above 200 µM and the 50% inhibitory concentration (IC50) was 29.5 µM.
The corresponding values for `O=C1c2ccccc2C(=O)N1CCCC[P+](c1ccccc1)(c1ccccc1)c1ccccc1` are above 200 µM and 15.5 µM.
In the case of `O=C1NC(=O)c2ccccc2/C1=C/c1ccc2c(c1)OCO2`, the EC50 is above 200 µM and the half-maximal inhibitory concentration (IC50) turned out to be 2.09 µM.
Take `COc1ccc(C(O)C/[N+]([O-])=C/c2ncc([N+](=O)[O-])n2C)cc1` (configuration not stated): the outcome was inactive.
On to `N#Cc1nc(-c2ccc(-c3nc(C#N)c(N)o3)cc2)oc1N`, for which the EC50 is above 200 µM and the 50% inhibitory concentration (IC50) is above 200 µM.
`COCCCNC1=C(C#N)C(=O)NC2(CCCC2)S1`: the EC50 was above 525 µM and the IC50 was above 525 µM.
Take `CC(C)P(=S)(OCc1ccccc1)C(C)C`: the EC50 was above 200 µM and the concentration for half-maximal inhibition (IC50) was 126 µM.
For `CC(C)(C)CC1=CC(=O)C(C2=CC(=O)C(CC(C)(C)C)=CC2=O)=CC1=O`, in that order: above 2 µM and above 2 µM.
The corresponding values for `CCC12CCCNC1c1c(n(C)c3ccccc13)C(C(=O)OC)C2` (configuration not stated) are above 37.2 µM and 34.7 µM.

Values taken from PubChem BioAssay AID179 (DTP/NCI, 2004).
